Laboratory results as given in patent US20120093735A1, “COMPLEX COMPOUND AND MRI PROBE MADE OF SAME” (priority 2005, published 2012).

Key:
Type in all cases: physicochemical
[1] = Relaxivity R1 of KMR-K001 depending on abundance of ions; conditions: KCl vs CaCl2, MgCl2, FeCl3; 0.05M Tris/HCl pH 7.4, 0.47 T, 40° C.
Experimental: Solutions of KMR-K001 (1.0 mM) and KCl (0, 0.01, 0.1, 0.3, 0.6, 0.9, 1.2, 1.5, 1.8, 2.4, 3.0, 10, 30. 100 mM) in 0.05M Tris/HCl buffer, pH 7.4, were prepared in an amount of 2 mL, respectively. Each solution was measured for the longitudinal relaxation time T1 three times using NMS 120 Minispec NMR ANALYZER (0.47 T, 40° C., IR pulse). Then each solution was sequentially diluted to attain KMR-K001 concentrations of 0.9 mM and 0.8 mM, respectively, and the longitudinal relaxation time T1 was measured therefor. By taking [KMR-K001] along the abscissa and taking 1/T1 along the ordinate, relaxivity R1 was determined from the slope. Measurements of the longitudinal relaxation time were carried out in the same manner using CaCl2, MgCl2 or FeCl3.

[2] = Relaxivity R1 of KMR-K001 in the presence of zinc ion; conditions: 0.05M Tris/HCl pH 7.4, 0.47 T, 40° C.; gadolinium ion liberated by ligand exchange
[3] = Relaxivity R1 of KMR-Ca001 depending on abundance of ions; conditions: CaCl2 vs NaCl, MgCl2, FeCl3; 0.05M Tris/HCl pH 7.4, 0.47 T, 40° C.
Experimental: (§1) Solutions of KMR-Ca001 (0.6 mM) and CaCl2 (0, 0.01, 0.1, 0.2, 0.3, 0.4, 0.5, 0.6, 0.7, 0.8, 1.0, 1.2, 3.0, 10, 30, 100mM) in 0.05M Tris/HCl buffer, pH 7.4, were prepared in an amount of 2 mL, respectively. Each solution was measured for the longitudinal relaxation time T1 three times using NMS 120 Minispec NMR ANALYZER (0.47 T, 40° C., IR pulse). Then each solution was sequentially diluted to attain […] concentrations of 0.45 mM and 0.35 mM, respectively, and the longitudinal relaxation time T1 was measured therefor in the same manner. By taking [KMR-Ca001] along the abscissa and taking 1/T1 along the ordinate, relaxivity R1 was determined from the slope. Measurements of the longitudinal relaxation time were carried out in the same manner using NaCl, MgCl2 or FeCl3.

[4] = Relaxivity R1 of KMR-Ca001 in the presence of iron ion; conditions: 0.05M Tris/HCl pH 7.4, 0.47 T, 40° C.; iron ion per se has relaxing capability
Experimental: as §1

[5] = T1-weighted images of KMR-Ca001 solutions (1.5T MR scanner); conditions: 0.05M Tris/HCl pH 7.4, 1.5T
Experimental: Water, solutions containing KMR-Ca001 alone at concentrations of 0.1, 0.3, 0.6, 1.0 and 3.0 mM, respectively, and solutions containing 0.3 mM KMR-Ca001 and CaCl2 at concentrations of 0.5, 0.6, 0.8, 1.0, 10.0, 20.0, 50.0, 80.0 mM, respectively, in 0.05M Tris/HCl buffer, pH 7.4, were prepared, and placed in glass tubes, respectively. These glass tubes were stood on agar contained in a Tupperware, and T1-weighted images were obtained by T1-weighted GRE using a 1.5T MR scanner (Signa Horzon LX, produced by GE Yokogawa Medical Systems).
As a result, as KMR-Ca001 increased, the T1-weighted images became whiter, so that it was confirmed that KMR-Ca001 functioned and effective as an MRI contrast agent. The T1-weighted images of the solutions containing 0.3 mM KMR-Ca001 to which calcium ion was added, as the calcium ion increases, coordination of water to gadolinium ion was more inhibited, so that T1-weighted image became darker. By this, it was confirmed that KMR-Ca001 is an MRI contrast agent which responds to calcium ion concentration.

Substance	ion selectivity of relaxivity R1 response [1]	change of relaxivity in the presence of zinc ion [2]	ion selectivity of relaxivity R1 response [3]	change of relaxivity in the presence of iron ion [4]	T1-weighted image change with increasing calcium ion ([5]; 0.3 mM KMR-Ca001 with CaCl2 0.5-80.0 mM)	T1-weighted image change with increasing probe concentration ([5]; KMR-Ca001 alone 0.1-3.0 mM)
[bis-(2-{[(2-carboxy-(benzo-15-crown-5)-ethylcarbamoyl)-methyl]-carboxymethyl-amino}-ethyl)-amino]-acetic acid gadolinium complex [KMR-K001]	selectively responds to potassium ion	the relaxivity is sharply increased				
{bis-[2-({[3-(bis-carboxymethyl-amino)-4-methoxy-phenylcarbamoyl]-methyl}-carboxymethyl-amino)-ethyl]-amino}-acetic acid gadolinium complex [KMR-Ca001]			selectively responds to calcium ion	the relaxivity is sharply increased	became darker	became whiter
